# In patent US7951359B2, “Compositions and methods for therapy or prevention of chemotherapy-induced neuropathy” (Merck Serono SA, priority 2004, dated 2011):
# Columns and labels:
# [1] = system: vincristine induced neuropathy; assay: Electromyography (EMG) in vincristine-treated rats; type: in vivo, rat
# Procedure: In parallel to behavioral tests, electrophysiological test as described in Example 17, were carried out to evaluate fiber/nerve function in vincristine-administered rats vis-à-vis rats co-administrated with IL-6.
# Electrophysiological recordings were performed using a Neuromatic 2000M electromyograph (EMG) (Dantec, Les Ulis, France). Rats were anaesthetized by IP injection of 60 mg/kg ketamine chlorhydrate (Imalgene 500®, Rhône Merieux, Lyon, France). The normal body temperature was maintained around […] with a heating lamp and verified using a contact thermometer (Quick, Bioblock Scientific, Illkirch, France) placed on the tail surface.
# Compound muscle action potential (CMAP) of M wave signal (or electrically evoked muscle potential) was recorded in the gastrocnemius muscle after stimulation of the sciatic nerve. M wave reflects the current developed during the action potential of muscle fibers. A reference electrode and an active needle were placed in the hind paw. A ground needle was inserted on the lower back of the rat. Sciatic nerve was stimulated with a single 0.2 ms pulse at supramaximal intensity. The […] of the motor wave was recorded and expressed in ms.
# (§1) Sensitive nerve conduction velocity (SNCV) was also recorded. The tail skin electrodes were placed as follows: a reference needle inserted at the base of the tail and an anode needle placed 30 mm away from the reference needle toward the extremity of the tail. A ground needle electrode was inserted between the anode and reference needles. The caudal nerve was stimulated with a series of 20 pulses (for 0.2 ms) at an intensity of 12.8 mA. The velocity was expressed in m/s.
# H-wave reflex was recorded in the hind footpad muscle after stimulation of the sciatic nerve. A reference electrode and a ground needle were placed on the lower back of the rat. The sciatic nerve was stimulated with a single 0.2 ms pulse at supramaximal intensity. The amplitude (mV) of H wave and the proportion of animal lacking H wave response were the parameters studied.
# [2] = system: vincristine induced neuropathy; assay: Hindpaw skin biopsy, density of dermal nerve fibers in vincristine-treated rats; type: in vivo, rat; details: IL-6 10 μg/kg
# Procedure: A 5-10 mm diameter area of skin was punch-biopsied from the hindpaw. Skin samples were immediately fixed overnight in paraformaldehyde at 4° C., incubated (overnight) in 30% sucrose in 0.1 M PBS for cryoprotection, embedded in OCT and frozen at −80° C. until cryocut. 50 μm-thick cryosections were then cut vertical to the skin surface with a cryostat. Free-floating sections were incubated for 7 days in a bath of rabbit anti-protein gene product 9.5 (1:10000; Ultraclone, Isle of Man, UK) at 4° C. The sections were then processed to reveal immunoreactivity according to the ABC peroxidase method. Briefly, they were incubated in for 1 hr with biotinylated anti-goat antibody (1:200), then 30 min in the avidin biotinylated complex at room temperature. Peroxidase activity was visualized using DAB system. Sections were then counterstained with eosin or hematoxylin. Sections were dehydrated, cleared with bioclear and mounted on eukitt. The number of dermal nerves of 3 microscope fields was counted manually under 40 magnification view.
# [3] = monkeys; cited from earlier work
# [4] = system: vincristine induced neuropathy; assay: Hot plate test in vincristine-treated rats; type: in vivo, rat
# Procedure: The rat was placed inside a glass cylinder of 17 cm height and 21 cm diameter on a heating-plate maintained at 52° C. (Medite OTS 40, Microm, Francheville, Rhône, France). The animal behavior was observed, particularly the licking of a foot and the adjusted leap. The latency before licking a foot or before jumping to escape the heat (adjusted leap) was recorded. The time needed to feel the thermal pain is related to the thermal sensitivity and tends to increase when thermal sensitivity is altered.
# taxol induced neuropathy = assay: Electrophysiological monitoring in taxol induced neuropathy, co-administration; type: in vivo, rat
# Procedure: The aim of the following experiment was to investigate the potential neuroprotective effect of IL6 in an additional model of chemotherapeutic induced neuropathy mediated by taxol. The potential preventive effect of IL-6 co-administration was tested. Administration of IL-6 was initiated together with taxol administration. The doses of IL-6 of 3 and 10 μg/kg were administered daily or in the case 10 μg/kg also only 3 times per week.
# Females 10 weeks old aged Dark Agouti rats were used, 12 animals per group were included as following
# The taxol was diluted in a solution of cremophor/ethanol/dextrose 5% and administered twice a week during 4 weeks.
# 4-MC and test compounds treatment was initiated the first day of intoxication and was stopped at the end of the study.
# The study was performed on 8 weeks (1 week for the baseline, 4 weeks for the taxol intoxication and 3 weeks of recovery).
# Control, taxol, and taxol-IL-6 co-administered group of rats at the indicated doses were subjected to electrophysiological monitoring to assess the effect of IL-6 in taxol-induced loss of fiber/nerve function.
# as §1
# H-wave reflex was recorded in the hind footpad muscle after stimulation of the sciatic nerve. […] The sciatic nerve was stimulated with a single 0.2 ms pulse at supramaximal intensity. The amplitude (mV) of H wave and the proportion of animal lacking H wave response were the parameters studied.
# [5] = system: Hybridoma growth factor (HGF) activity; assay: Hybridoma growth factor (HGF) activity of IL-6; type: cell-based; details: based on Hybridoma growth factor (HGF) activity
# From the text: Recombinant human IL-6 (r-hlL-6) is produced in genetically engineered Chinese Hamster Ovary (CHO) cells. The production process begins with the growth and expansion of cells from a working cell bank (WCB) and continues under conditions where r-hlL-6 is secreted into the culture medium. The r-hlL-6 was harvested and purified from culture medium of the engineered cells.
# [6] = system: vincristine induced neuropathy; assay: Morphometric analysis of sciatic nerve in vincristine-treated rats; type: in vivo, rat
# Procedure: Histomorphometric analyses were carried out as described in Example 18 at the completion of the experiments, to explore morphologic changes occurring in fiber and axon diameter and myelin thickness in rats treated with vincristine and in rats co-administrated with IL-6.
# With vincristine, morphometric analysis was performed 2 week after the end of vincristine administration on 3 animals per group. The animals were anesthetized by IP injection of 100 mg/kg Imalgène 500®. A 5 mm segment of sciatic nerve was excised, fixed overnight with 4% glutaraldehyde (Sigma, L'Isle d'Abeau-Chesnes, France) in phosphate buffered saline (PBS) (pH=7.4) and maintained in 30% sucrose and stored at 4° C. until further processing. At the time of use, the nerve sample was post-fixed in 1% osmium tetroxide (Sigma, L'Isle d'Abeau-Chesnes, France) in PBS for 2 h, dehydrated in serial alcohol solution, and embedded in Epon. Embedded tissues were then placed at 70° C. during 3 days to allow polymerization of the tissue wax. Cross sections of 1.5 μm thick were performed and they were stained with a 1% toluidine blue solution (Sigma, L'Isle d'Abeau-Chesnes, France) for 2 min, dehydrated and mounted on Eukitt. Twelve sections per sample were examined using an optical microscope (Nikon, Tokyo, Japan) and analyzed using, a semi-automated digital image analysis software (Biocom, France). The fiber diameter (a), axon diameter (b), and myelin thickness (c) were measured as illustrated below.
# [7] = system: vincristine induced neuropathy; assay: Walking test (motor coordination) in vincristine-treated rats; type: in vivo, rat; details: IL-6 0.3, 1, 3, 10 μg/kg SC daily; 2 and 3 weeks
# Procedure: The motor coordination was assessed using walking test, which consists at measuring the time taken by a rat placed at one extremity of a 100 cm-long horizontal wooden rod of 5.5 cm diameter, 40 cm above the table, to cover a distance of 1 m on this rod. Three tests (maximum duration: 60 s each) were performed, and the mean value was calculated and retained as characteristic value. If the animal fell down, it was scored with a maximum of 60 s.
substance,measurement,setting,value
IL-6: Recombinant human IL-6 produced in genetically engineered Chinese Hamster Ovary (CHO) cells,CMAP latency time,[1]; IL-6 10 μg/kg SC daily with vincristine,fully preserved their CMAP latency time
same,vincristine-induced CMAP latency,"[1]; IL-6 0.3-10 μg/kg SC daily, p<0.05",reduced
same,SNCV in vincristine treated animals,[1]; IL-6 1-10 μg/kg SC daily,full restoration of SNCV
same,H wave amplitude preservation,[1]; IL-6 1-10 μg/kg SC daily with vincristine,fully preserved the H wave amplitude
same,"protection against loss of M wave amplitude, duration",[1]; IL-6 3-10 μg/kg SC daily with vincristine,stable throughout the experiment
same,prevention of vincristine-induced loss of M wave amplitude,[1]; IL-6 all doses tested (0.3-10 μg/kg SC daily),prevent vincristine-induced loss of M wave amplitude
same,protection against vincristine-induced fiber/nerve function loss compared with 4-MC,[1]; IL-6 vs 4-MC 10 μg/kg IP,confers better protection that 4-MC
same,dermal fiber loss by vincristine,[2],fully prevented
same,active dose as thrombopoietic factor,[3],10 µg/kg
same,prevention of vincristine-induced nociception loss (hot plate),"[4]; IL-6 0.3, 1, 3, 10 μg/kg SC daily, 5 weeks",significantly prevented nociception
same,protection from vincristine-induced nociception loss compared with 4-MC,[4]; IL-6 0.3-10 μg/kg SC vs 4-MC 10 μg/kg IP,confers better protection that 4-MC
same,H wave latency under taxol,"taxol induced neuropathy; IL-6 3 or 10 μg/kg daily or 10 μg/kg 3 times per week, sc",prevent/reduce H wave latency
same,alterations in SNCV by taxol,taxol induced neuropathy; IL-6 3 or 10 μg/kg daily or 3 times per week,prevent alterations in SNCV
same,reduction in H wave amplitude by taxol,"taxol induced neuropathy; IL-6 at all the dosages tested, throughout the experiment",significantly prevented the reduction in H wave amplitude
same,preventive effects compared with 4-MC co-administration,taxol induced neuropathy; IL-6 vs 4-MC,more significant than those of 4-MC co-administration
same,potency,[5],23.3×10^6 IU/ml
same,decrease in axon diameter by vincristine,[6]; IL-6 0.3-10 μg/kg SC daily,significantly reduced/prevented the decrease in axon diameter
same,percentage of degenerated fibers in vincristine treated rats,[6]; IL-6 0.3-10 μg/kg SC daily,decreased the percentage of degenerated fibers
same,vincristine-induced fiber shrinkage,[6]; IL-6 1-10 μg/kg SC daily,prevented vincristine-induced fiber shrinkage
same,vincristine-induced myelin loss,[6]; IL-6 1-10 μg/kg SC daily,reduced/prevented vincristine-induced myelin loss
same,"walking test, time to traverse the rod versus vincristine alone",[7],traversed the rod faster
